The record followed here is patent US8106017B2, “Peptides for promoting hair growth and improving wrinkle and cosmetic compositions comprising the same” (Caregen Co., Ltd., priority 2005, dated 2012).

One test concerns HaCaT keratinocytes. As to the kind of experiment: SRB colorimetric assay, growth of HaCaT keratinocytes. The format is cell-based, human. The note with it: 10 ng/ml or 1,000 ng/ml, 72 hr, serum-free medium; FIGS. 7 and 8. As to the method:
To analyze effects of peptides of this invention on proliferation of keratinocytes, SRB (Sulforhodamine B) colorimetric assay was carried out using HaCaT kerationcyte according to Rizzino et al method (Rizzino, et al. Cancer Res., 48:4266 (1988)). HaCaT ketatinocytes (The Korean Cell Line Bank) were cultured in 250 ml-flasks containing EMEM (Eagle's minimal essential media, Gibco, U.S.A.) supplemented with […] (fetal bovine serum). HaCaT ketatinocytes cultured were treated with 0.25% trypsin solution to detach cells from the bottom of culture flasks and centrifuged to collect cell pellets. Cells were resuspended in EMEM not containing FBS, its aliquot (4×10^3) cells was added to each well of 96-well plates and cultured under 7% CO2 for 24 hr at 37° C. After 24-hr culture, the medium was changed with a fresh medium not containing serum and cells were incubated with thymosin β-4 or the acetyl-octapeptide (10 ng/ml or 1,000 ng/ml) dissolved in 10% DMSO for 72 hr under the same conditions as described above. After removing supernatants, cells were washed once using PBS (phosphate buffered saline) and incubated with SRB solution (Sigma-Aldrich). Cells were washed with PBS and observed under a microscope to find cell viability. In addition, absorbance at 590 nm was measured to analyze cell proliferation (FIG. 7). […]

The subject of a further test is hyaluronic acid. As to the kind of experiment: Hyaluronic acid level in HaCaT cell line (Hyaluronic acid ELISA kit). The format is cell-based, human. The note with it: HaCaT keratinocytes, 5 μmole; FIG. 10. As to the method:
(§1) Furthermore, HaCaT cell line was treated with the acetyl-octapeptide of this invention (1 μg/ml) and the level of procollagen, one of indicators to show the improvement in skin wrinkle, was examined (FIG. 9). The level of procollagen was measured using Procollagen ELISA kit (Takara). For verifying effects on levels of hyaluronic acid, another indicator representing the improvement in skin wrinkle, HaCaT cell line was incubated with the acetyl-octapeptide of this invention (5 μmole) and the level of hyaluronic acid was measured using Hyaluronic acid ELISA kit (Echelon Biosciences Inc, USA) (FIG. 10).

Another test deals with procollagen. As to the kind of experiment: Procollagen level in HaCaT cell line (Procollagen ELISA kit). The format is cell-based, human. The note with it: HaCaT keratinocytes, 1 μg/ml; FIG. 9. As to the method: as §1
The next test relates to C3H/HeN mice. The experiment in a line: Hair-growth activities in mice with hair removed. The format is in vivo. The following applies: Formulation Example 5 applied on back for 25 days, initial hair growth effects, hair length and number, FIG. 12. From the text: The hairs of the back portions of C3H/HeN mice were completely removed using a hair cutter and a hair loss-inducing substance. One day later, Formulation Example 5 (cosmetic liquid) was applied onto the back portions for 25 days and then hair growth was observed.

The next test deals with BALB/MK karatinocytes. As to the kind of experiment: [3H]-thymidine incorporation, measurement of biological activities. The format is cell-based. The note with it: FIG. 5; for biological activity compared with natural thymosin β-4: BALB/MK keratinocytes, thymidine incorporation. As to the method: The biological activities of the purified acetyl-octapetide of Example 2 were evaluated using BALB/MK karatinocytes according to Falco et al method to measure [^3H]-thymidine incorporation (Falco, et al. (1988) Oncogene., 2, 573). BALB/MK karatinocytes were cultured in 250 ml-flasks containing EMEM (Eagle's minimal essential media, Gibco, U.S.A.) supplemented with […] (fetal bovine serum). BALB/MK karatinocytes cultured were treated with 0.25% trypsin solution to detach cells from the bottom of culture flasks and centrifuged to collect cell pellets. Cells were resuspended in EMEM not containing FBS, its aliquot, 2×10^4 cells/0.3 ml medium was added to each well of 24-well plates and cultured under 7% CO2 for 24 hr at 37° C. 2 ng/ml of the acetyl octapeptide prepared in Example 2 was serially diluted by two-fold using EMEM containing 0.2 (w/v) % bovine serum albumin and 0.3 ml of the diluted peptide was added to each well, followed by additional culturing under 7% CO2 for 6 hr at 37° C. Afterwards, 0.5 μCi of [^3H]-thymidine (Amersham, TRK 686, 68 Ci/mmol) was added to each well and incubated overnight. After removing supernatants, cells were washed once using PBS (phosphate buffered saline) and incubated with 0.1 ml of 0.25% trypsin solution for 5 min at 37° C. to detach cells from the bottom of plates. 0.5 ml of EMEM containing 10% FBS was added to each well and cells were adhered to glass fiber filters using a cell harvester (12 well cell harvester, Millipore, U.S.A.). The filters were washed once with 1 ml of distilled water and once with 1 ml of ethanol, and kept to stand for 30 min at 60° C. for drying. The dried filters were added along with 2 ml of scintillation cocktail to scintillation vials and allowed to stand for 30 min at room temperature, after which radioactivity incorporated into cells was determined using a scintillation counter (Beckman, U.S.A) as shown in FIG. 5.

Regarding “Ac-Lys-Leu-Lys-Lys-Thr-Glu-Thr-Gln-OH (Ac-KLKKTETQ-OH) [acetyl octapeptide]”, in the test on HaCaT keratinocytes, the “cell viability / proliferation of HaCaT keratinocytes versus control” value is “much higher cell viability than control”. The “level of hyaluronic acid in cells” value in the test on hyaluronic acid was “increased in a dose-dependent manner”. Besides, in the test on procollagen, the “level of procollagen in cells” value is reported as “increased in a dose-dependent manner”. Further, in the test with C3H/HeN mice, the “increase of hair growth compared with control” value is 25-30%. In addition, the “[3H]-thymidine incorporation into keratinocytes” value with BALB/MK karatinocytes (2 ng/ml serially diluted two-fold) is on record as “promotes thymidine incorporation into kerationcytes in a dose-dependent fashion”. Besides, the “biological activity compared with natural thymosin β-4” value with BALB/MK karatinocytes is “high biological activities similar to intact Tβ-4F”; in the test on BALB/MK karatinocytes (listed as present peptide), “biological activities almost identical to natural-occurring Tβ4”.
